Laboratory results from ChEMBL document CHEMBL1275492, “In vitro activity of ceftobiprole against pathogens from two phase 3 clinical trials of complicated skin and skin structure infections” (2008).
≈ marks a conversion by molar mass, not a printed value.

Assays:
Format in all cases: functional
Staphylococcus aureus [1] = experiment: Antibacterial activity against Staphylococcus aureus obtained from complicated skin and skin structure infections by agar dilution method
Staphylococcus aureus [2] = experiment: Antibacterial activity against methicillin resistant Staphylococcus aureus obtained from complicated skin and skin structure infections by agar dilution method
Staphylococcus aureus [3] = experiment: Antibacterial activity against methicillin susceptible Staphylococcus aureus obtained from complicated skin and skin structure infections by agar dilution method
[4] = tested on: Staphylococcus epidermidis; experiment: Antibacterial activity against coagulase-negative Staphylococcus epidermidis obtained from complicated skin and skin structure infections by agar dilution method
[5] = tested on: Staphylococcus haemolyticus; experiment: Antibacterial activity against coagulase-negative Staphylococcus haemolyticus obtained from complicated skin and skin structure infections by agar dilution method
[6] = tested on: Staphylococcus lugdunensis; experiment: Antibacterial activity against coagulase-negative Staphylococcus lugdunensis obtained from complicated skin and skin structure infections by agar dilution method
Staphylococcus hominis = experiment: Antibacterial activity against coagulase-negative Staphylococcus hominis obtained from complicated skin and skin structure infections by agar dilution method
Staphylococcus capitis = experiment: Antibacterial activity against coagulase-negative Staphylococcus capitis obtained from complicated skin and skin structure infections by agar dilution method
[7] = tested on: Staphylococcus saprophyticus; experiment: Antibacterial activity against coagulase-negative Staphylococcus saprophyticus obtained from complicated skin and skin structure infections by agar dilution method
Staphylococcus cohnii = experiment: Antibacterial activity against coagulase-negative Staphylococcus cohnii obtained from complicated skin and skin structure infections by agar dilution method
Mammaliicoccus sciuri = experiment: Antibacterial activity against coagulase-negative Staphylococcus sciuri obtained from complicated skin and skin structure infections by agar dilution method
Staphylococcus warneri = experiment: Antibacterial activity against coagulase-negative Staphylococcus warneri obtained from complicated skin and skin structure infections by agar dilution method
[8] = tested on: Staphylococcus lugdunensis; experiment: Antibacterial activity against methicillin-resistant, oxacillin-susceptible, coagulase-negative, mecA-positive Staphylococcus lugdunensis obtained from complicated skin and skin structure infections by agar dilution method
Staphylococcus = experiment: Antibacterial activity against methicillin-susceptible, coagulase-negative Staphylococcus obtained from complicated skin and skin structure infections by agar dilution method
Enterococcus faecalis = experiment: Antibacterial activity against Enterococcus faecalis obtained from complicated skin and skin structure infections by agar dilution method
Enterococcus faecium = experiment: Antibacterial activity against Enterococcus faecium obtained from complicated skin and skin structure infections by agar dilution method
Streptococcus agalactiae = experiment: Antibacterial activity against Streptococcus agalactiae obtained from complicated skin and skin structure infections by agar dilution method
Streptococcus pyogenes = experiment: Antibacterial activity against Streptococcus pyogenes obtained from complicated skin and skin structure infections by agar dilution method
[9] = Antibacterial activity against Streptococcus sp. 'group C' obtained from complicated skin and skin structure infections by agar dilution method
[10] = Antibacterial activity against Streptococcus sp. 'group G' obtained from complicated skin and skin structure infections by agar dilution method
[11] = tested on: Streptococcus constellatus; experiment: Antibacterial activity against Streptococcus constellatus obtained from complicated skin and skin structure infections by agar dilution method
Streptococcus mitis = experiment: Antibacterial activity against Streptococcus mitis obtained from complicated skin and skin structure infections by agar dilution method
[12] = tested on: Staphylococcus intermedius; experiment: Antibacterial activity against Staphylococcus intermedius obtained from complicated skin and skin structure infections by agar dilution method
Aerococcus viridans = experiment: Antibacterial activity against Aerococcus viridans obtained from complicated skin and skin structure infections by agar dilution method
Bacillus = experiment: Antibacterial activity against Bacillus spp. obtained from complicated skin and skin structure infections by agar dilution method
Gemella morbillorum = experiment: Antibacterial activity against Gemella morbillorum obtained from complicated skin and skin structure infections […]
Gemella = experiment: Antibacterial activity against Gemella spp. obtained from complicated skin and skin structure infections by agar dilution method
Lactococcus lactis = experiment: Antibacterial activity against Lactococcus lactis obtained from complicated skin and skin structure infections by agar dilution method
Micrococcus = experiment: Antibacterial activity against Micrococcus spp. obtained from complicated skin and skin structure infections by agar dilution method

CC(=O)NC[C@H]1CN(c2ccc(N3CCOCC3)c(F)c2)C(=O)O1 [LINEZOLID]
MIC50 (Staphylococcus aureus [1]): 2 mg/L (≈ 5.93 µM)
MIC90 (Staphylococcus aureus [1]): 2 mg/L (≈ 5.93 µM)
MIC50 (Staphylococcus aureus [2]): 2 mg/L (≈ 5.93 µM)
MIC90 (Staphylococcus aureus [2]): 2 mg/L (≈ 5.93 µM)
MIC50 (Staphylococcus aureus [3]): 2 mg/L (≈ 5.93 µM)
MIC90 (Staphylococcus aureus [3]): 2 mg/L (≈ 5.93 µM)
MIC50 [4]: 1 mg/L (≈ 2.96 µM)
MIC90 [4]: 1 mg/L (≈ 2.96 µM)
MIC50 [5]: 1 mg/L (≈ 2.96 µM)
MIC90 [5]: 1 mg/L (≈ 2.96 µM)
MIC50 [6]: 1 mg/L (≈ 2.96 µM)
MIC90 [6]: 1 mg/L (≈ 2.96 µM)
MIC50 (Staphylococcus hominis): 1 mg/L (≈ 2.96 µM)
MIC90 (Staphylococcus hominis): 1 mg/L (≈ 2.96 µM)
MIC50 (Staphylococcus capitis): 1 mg/L (≈ 2.96 µM)
MIC90 (Staphylococcus capitis): 1 mg/L (≈ 2.96 µM)
MIC50 [7]: 1 mg/L (≈ 2.96 µM)
MIC90 [7]: 1 mg/L (≈ 2.96 µM)
MIC50 (Staphylococcus cohnii): 1 mg/L (≈ 2.96 µM)
MIC90 (Staphylococcus cohnii): 1 mg/L (≈ 2.96 µM)
MIC50 (Mammaliicoccus sciuri): 1 mg/L (≈ 2.96 µM)
MIC90 (Mammaliicoccus sciuri): 1 mg/L (≈ 2.96 µM)
MIC50 (Staphylococcus warneri): 1 mg/L (≈ 2.96 µM)
MIC90 (Staphylococcus warneri): 1 mg/L (≈ 2.96 µM)
MIC50 [8]: 1 mg/L (≈ 2.96 µM)
MIC90 [8]: 1 mg/L (≈ 2.96 µM)
MIC50 (Staphylococcus): 1 mg/L (≈ 2.96 µM)
MIC90 (Staphylococcus): 1 mg/L (≈ 2.96 µM)
MIC50 (Enterococcus faecalis): 1 mg/L (≈ 2.96 µM)
MIC90 (Enterococcus faecalis): 2 mg/L (≈ 5.93 µM)
MIC (Enterococcus faecium): 2 mg/L (≈ 5.93 µM)
MIC50 (Enterococcus faecium): 2 mg/L (≈ 5.93 µM)
MIC50 (Streptococcus agalactiae): 1 mg/L (≈ 2.96 µM)
MIC90 (Streptococcus agalactiae): 1 mg/L (≈ 2.96 µM)
MIC50 (Streptococcus pyogenes): 1 mg/L (≈ 2.96 µM)
MIC90 (Streptococcus pyogenes): 1 mg/L (≈ 2.96 µM)
MIC50 [9]: 1 mg/L (≈ 2.96 µM)
MIC90 [9]: 2 mg/L (≈ 5.93 µM)
MIC [10]: 1 mg/L (≈ 2.96 µM)
MIC50 [10]: 1 mg/L (≈ 2.96 µM)
MIC90 [10]: 1 mg/L (≈ 2.96 µM)
MIC50 [11]: 1 mg/L (≈ 2.96 µM)
MIC90 [11]: 1 mg/L (≈ 2.96 µM)
MIC50 (Streptococcus mitis): ≤ 0.06 mg/L
MIC90 (Streptococcus mitis): 0.06 mg/L (≈ 0.178 µM)
MIC50 [12]: ≤ 0.06 mg/L
MIC90 [12]: 0.06 mg/L (≈ 0.178 µM)
MIC50 (Aerococcus viridans): 1 mg/L (≈ 2.96 µM)
MIC90 (Aerococcus viridans): 2 mg/L (≈ 5.93 µM)
MIC50 (Bacillus): 1 mg/L (≈ 2.96 µM)
MIC90 (Bacillus): 2 mg/L (≈ 5.93 µM)
MIC50 (Gemella morbillorum): 1 mg/L (≈ 2.96 µM)
MIC90 (Gemella morbillorum): 2 mg/L (≈ 5.93 µM)
MIC50 (Gemella): 1 mg/L (≈ 2.96 µM)
MIC90 (Gemella): 2 mg/L (≈ 5.93 µM)
MIC50 (Lactococcus lactis): 1 mg/L (≈ 2.96 µM)
MIC90 (Lactococcus lactis): 2 mg/L (≈ 5.93 µM)
MIC50 (Micrococcus): 1 mg/L (≈ 2.96 µM)
MIC90 (Micrococcus): 2 mg/L (≈ 5.93 µM)
